Reference: ChEMBL document CHEMBL1133484 (Bioorg Med Chem Lett, 2000)
Starred links: 1 amine or outer side, 2 acyl side, 3 side chain; linkers in the order of their positions; H or OH if unused. Non-standard residues stand in square brackets, D forms with d. Residues, ends and D or L forms follow the SMILES beside them. *: point of attachment. X2 = O=C([C@@H]1C[C@@H](CCCc2ccccc2)CN1[*:1])[*:2]; X3 = O=C([C@@H]1C[C@@H](CCc2ccccc2)CN1[*:1])[*:2]; Pro(4R-Bn) = O=C(O)[C@@H]1C[C@@H](Cc2ccccc2)CN1; CH2(1-naphthyl) = c1ccc2c(C*)cccc2c1; mXylylene = c1cc(C[*:1])cc(C[*:2])c1; oXylylene = c1ccc(C[*:2])c(C[*:1])c1; Glutaryl = O=C(CCCC(=O)[*:2])[*:1]; Hyp = O=C(O)[C@@H]1C[C@@H](O)CN1; Chg = N[C@H](C(=O)O)C1CCCCC1; Nva = CCC[C@H](N)C(=O)O; X1 = c1ccc2cc(C*)ccc2c1; Ac3c = NC1(C(=O)O)CC1; Meb = Cc1ccc(C*)cc1; CF3 = FC(F)(F)*

Legend:
NS3 [1] = target: T1, NS3 (Hepatitis C virus, UniProt A3EZJ3); test: Inhibitory activity against NS3 protease complexed with NS4A cofactor peptide (NS3-4A pep); design: species or system Hepacivirus hominis
Neutrophil elastase = target: T2, Neutrophil elastase (Homo sapiens, UniProt P08246); test: Compound was evaluated for its inhibitory activity against human leukocyte elastase (HLE)
T2 sequence (P08246 whole entry): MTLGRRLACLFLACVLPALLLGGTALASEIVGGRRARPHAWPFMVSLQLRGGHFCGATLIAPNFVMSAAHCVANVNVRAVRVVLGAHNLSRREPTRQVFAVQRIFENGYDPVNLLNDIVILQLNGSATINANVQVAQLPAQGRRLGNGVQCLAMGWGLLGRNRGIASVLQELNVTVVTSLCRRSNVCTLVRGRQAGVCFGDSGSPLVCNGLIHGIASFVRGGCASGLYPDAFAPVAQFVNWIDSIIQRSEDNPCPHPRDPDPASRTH

NS3 [2] = target: T1, NS3; test: Compound was evaluated for its binding affinity against NS3 protease complexed with NS4A cofactor peptide (NS3-4A pep); design: species or system Hepacivirus hominis
Cathepsin B = Cathepsin B (Homo sapiens, UniProt P07858); test: Compound was evaluated for its inhibitory activity against cathepsin B
Chymotrypsinogen B = Chymotrypsinogen B (Homo sapiens, UniProt P17538); test: Compound was evaluated for its inhibitory activity against Chymotrypsinogen
Chain of Chymotrypsinogen B (P17538 34-164 limits assumed, other chains not shown): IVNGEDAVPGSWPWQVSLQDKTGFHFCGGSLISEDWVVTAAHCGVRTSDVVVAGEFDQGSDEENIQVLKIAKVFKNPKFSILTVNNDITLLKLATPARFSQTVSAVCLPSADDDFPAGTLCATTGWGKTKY
Chain of Chymotrypsinogen B (P17538 167-263 limits assumed, other chains not shown): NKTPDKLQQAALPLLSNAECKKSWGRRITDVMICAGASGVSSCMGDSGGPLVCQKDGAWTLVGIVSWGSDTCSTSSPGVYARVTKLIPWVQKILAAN

T1 sequence (A3EZJ3 whole entry): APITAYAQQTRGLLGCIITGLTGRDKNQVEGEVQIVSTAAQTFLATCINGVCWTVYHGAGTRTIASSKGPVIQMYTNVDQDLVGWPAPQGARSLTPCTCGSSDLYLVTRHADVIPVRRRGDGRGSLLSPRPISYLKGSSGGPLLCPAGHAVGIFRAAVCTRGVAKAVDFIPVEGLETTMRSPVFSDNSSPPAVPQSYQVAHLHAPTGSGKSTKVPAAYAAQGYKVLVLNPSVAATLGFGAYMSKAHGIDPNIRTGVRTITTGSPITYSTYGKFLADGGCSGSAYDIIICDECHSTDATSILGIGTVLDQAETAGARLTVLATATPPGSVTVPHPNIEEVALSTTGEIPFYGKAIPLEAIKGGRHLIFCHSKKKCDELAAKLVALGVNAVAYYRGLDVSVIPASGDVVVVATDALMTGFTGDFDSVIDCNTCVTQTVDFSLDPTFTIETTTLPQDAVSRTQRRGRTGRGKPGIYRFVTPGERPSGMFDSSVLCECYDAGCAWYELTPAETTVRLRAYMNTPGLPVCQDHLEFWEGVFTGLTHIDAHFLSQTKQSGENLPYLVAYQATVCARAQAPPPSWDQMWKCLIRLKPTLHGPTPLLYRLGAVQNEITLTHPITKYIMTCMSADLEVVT

Row | Structure (SMILES) | IC50 (NS3 [1]) | also measured
1 | CC[C@H](C)[C@H](NC(=O)[C@H](CC(=O)O)NC(=O)[C@H](CC(=O)O)NC(C)=O)C(=O)N[C@H](C(=O)N1CCC[C@H]1C(=O)NC1(C(=O)O)CC1)C(C)C (Ac-DDIVP[Ac3c]-OH) | 54 µM | –
2 | CCC[C@H](NC(=O)[C@@H]1C[C@@H](Cc2ccccc2)CN1C(=O)[C@@H](NC(=O)[C@@H](NC(=O)[C@H](CC(=O)O)NC(=O)[C@H](CC(=O)O)NC(C)=O)[C@@H](C)CC)C(C)C)C(=O)O (Ac-DDIV[Pro(4R-Bn)][Nva]-OH) | 60 µM | –
3 | CC(=O)N[C@H](C(=O)N[C@H](C(=O)N1C[C@H](OCc2cccc3ccccc23)C[C@H]1C(=O)NC1(C(=O)O)CC1)C(C)C)C1CCCCC1 (Ac-[Chg]V[Hyp](CH2(1-naphthyl))[Ac3c]-OH) | 3.5 µM | IC50 (Neutrophil elastase): > 600 µM
4 | CCC[C@H](NC(=O)[C@@H]1C[C@@H](OCc2ccccc2C)CN1C(=O)[C@@H](NC(=O)[C@@H](NC(=O)[C@H](CC(=O)O)NC(=O)[C@H](CC(=O)O)NC(C)=O)[C@@H](C)CC)C(C)C)C(=O)O (Ac-DDIV[Hyp](oXylylene)[Nva]-OH) | 6.8 µM | –
5 | CCC[C@H](NC(=O)[C@@H]1C[C@@H](CCCc2ccccc2)CN1C(=O)[C@@H](NC(=O)[C@@H](NC(=O)[C@H](CC(=O)O)NC(=O)[C@H](CC(=O)O)NC(C)=O)[C@@H](C)CC)C(C)C)C(=O)O (Ac-DDIV[X2][Nva]-OH) | 3.3 µM | –
6 | CCC[C@H](NC(=O)[C@@H]1CCCN1C(=O)[C@@H](NC(=O)[C@@H](NC(=O)[C@@H](CC(=O)O)NC(=O)[C@H](CC(=O)O)NC(C)=O)[C@@H](C)CC)C(C)C)C(=O)C(F)(F)F (Ac-D[dD]IVP[Nva]-CF3) | 22 µM | –
7 | CCC[C@H](NC(=O)[C@@H]1C[C@@H](OCc2ccc(C)cc2)CN1C(=O)[C@@H](NC(=O)[C@@H](NC(=O)[C@H](CC(=O)O)NC(=O)[C@H](CC(=O)O)NC(C)=O)[C@@H](C)CC)C(C)C)C(=O)O (Ac-DDIV[Hyp](Meb)[Nva]-OH) | 2.5 µM | –
8 | CC(C)[C@H](NC(=O)[C@@H](NC(=O)CCCC(=O)O)C1CCCCC1)C(=O)N1C[C@H](OCc2cccc3ccccc23)C[C@H]1C(=O)NC1(C(=O)O)CC1 (Glutaryl-[Chg]V[Hyp](CH2(1-naphthyl))[Ac3c]-OH) | 0.9 µM | –
9 | CCC[C@H](NC(=O)[C@@H]1CCCN1C(=O)[C@@H](NC(=O)[C@@H](NC(=O)[C@H](CC(=O)O)NC(=O)[C@H](CC(=O)O)NC(C)=O)[C@@H](C)CC)C(C)C)C(=O)O (Ac-DDIVP[Nva]-OH) | 150 µM | –
10 | CCC[C@H](NC(=O)[C@@H]1C[C@@H](O)CN1C(=O)[C@@H](NC(=O)[C@@H](NC(=O)[C@H](CC(=O)O)NC(=O)[C@H](CC(=O)O)NC(C)=O)[C@@H](C)CC)C(C)C)C(=O)O (Ac-DDIV[Hyp][Nva]-OH) | 93 µM | –
11 | CCC[C@H](NC(=O)[C@@H]1C[C@@H](CCc2ccccc2)CN1C(=O)[C@@H](NC(=O)[C@@H](NC(=O)[C@H](CC(=O)O)NC(=O)[C@H](CC(=O)O)NC(C)=O)[C@@H](C)CC)C(C)C)C(=O)O (Ac-DDIV[X3][Nva]-OH) | 10 µM | –
12 | CC(=O)N[C@@H](CC(=O)O)C(=O)N[C@H](CCC(=O)O)C(=O)N[C@H](C(=O)N[C@H](C(=O)N1C[C@H](OCc2cccc3ccccc23)C[C@H]1C(=O)NC1(C(=O)O)CC1)C(C)C)C1CCCCC1 (Ac-D[dE][Chg]V[Hyp](CH2(1-naphthyl))[Ac3c]-OH) | 0.013 µM | –
13 | CCC[C@H](NC(=O)[C@@H]1C[C@@H](OCc2cccc(C)c2)CN1C(=O)[C@@H](NC(=O)[C@@H](NC(=O)[C@H](CC(=O)O)NC(=O)[C@H](CC(=O)O)NC(C)=O)[C@@H](C)CC)C(C)C)C(=O)O (Ac-DDIV[Hyp](mXylylene)[Nva]-OH) | 3.5 µM | –
14 | CCC[C@H](NC(=O)[C@@H]1CCCN1C(=O)[C@@H](NC(=O)[C@@H](NC(=O)[C@@H](CC(=O)O)NC(=O)[C@H](CC(=O)O)NC(C)=O)[C@@H](C)CC)C(C)C)C(=O)O (Ac-D[dD]IVP[Nva]-OH) | 17 µM | –
15 | CCC[C@H](NC(=O)[C@@H]1C[C@@H](OCc2ccc3ccccc3c2)CN1C(=O)[C@@H](NC(=O)[C@@H](NC(=O)[C@@H](CCC(=O)O)NC(=O)[C@H](CC(=O)O)NC(C)=O)C1CCCCC1)C(C)C)C(=O)O (Ac-D[dE][Chg]V[Hyp](X1)[Nva]-OH) | 0.027 µM | Ki (NS3 [2]): 0.003 µM; IC50 (Neutrophil elastase): > 300 µM; IC50 (Cathepsin B): > 300 µM; IC50 (Chymotrypsinogen B): > 300 µM
16 | CCC[C@H](NC(=O)[C@@H]1C[C@@H](OCc2ccc3ccccc3c2)CN1C(=O)[C@@H](NC(=O)[C@@H](NC(=O)[C@H](CC(=O)O)NC(=O)[C@H](CC(=O)O)NC(C)=O)[C@@H](C)CC)C(C)C)C(=O)O (Ac-DDIV[Hyp](X1)[Nva]-OH) | 0.71 µM | –
17 | CCC[C@H](NC(=O)[C@@H]1C[C@@H](OCc2cccc3ccccc23)CN1C(=O)[C@@H](NC(=O)[C@@H](NC(=O)[C@H](CC(=O)O)NC(=O)[C@H](CC(=O)O)NC(C)=O)[C@@H](C)CC)C(C)C)C(=O)O (Ac-DDIV[Hyp](CH2(1-naphthyl))[Nva]-OH) | 0.39 µM | –
18 | CCC[C@H](NC(=O)[C@@H]1CCCN1C(=O)[C@@H](NC(=O)[C@@H](NC(=O)[C@@H](CCC(=O)O)NC(=O)[C@H](CC(=O)O)NC(C)=O)[C@@H](C)CC)C(C)C)C(=O)O (Ac-D[dE]IVP[Nva]-OH) | 7.5 µM | –
